This note sets out measurements from patent publication US9862717B2 (Merck Patent GmbH, priority 2014, dated 2018).

SMILES strings stand for the structures. pIC50: −log10 of the molar value.

T1 sequence (P49336 whole entry): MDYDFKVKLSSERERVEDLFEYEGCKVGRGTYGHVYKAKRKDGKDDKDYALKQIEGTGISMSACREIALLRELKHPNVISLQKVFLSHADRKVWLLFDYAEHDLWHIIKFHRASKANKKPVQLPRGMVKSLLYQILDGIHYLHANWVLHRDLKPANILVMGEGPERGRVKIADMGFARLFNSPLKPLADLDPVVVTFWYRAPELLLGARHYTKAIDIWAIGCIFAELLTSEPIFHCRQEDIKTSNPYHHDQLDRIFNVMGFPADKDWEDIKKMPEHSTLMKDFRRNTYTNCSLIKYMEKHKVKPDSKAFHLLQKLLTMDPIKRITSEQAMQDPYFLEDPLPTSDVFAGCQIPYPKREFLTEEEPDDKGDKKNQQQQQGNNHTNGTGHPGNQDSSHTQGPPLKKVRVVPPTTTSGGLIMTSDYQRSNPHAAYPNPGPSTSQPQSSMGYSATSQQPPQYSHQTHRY
T1 sequence (P24863 whole entry partner): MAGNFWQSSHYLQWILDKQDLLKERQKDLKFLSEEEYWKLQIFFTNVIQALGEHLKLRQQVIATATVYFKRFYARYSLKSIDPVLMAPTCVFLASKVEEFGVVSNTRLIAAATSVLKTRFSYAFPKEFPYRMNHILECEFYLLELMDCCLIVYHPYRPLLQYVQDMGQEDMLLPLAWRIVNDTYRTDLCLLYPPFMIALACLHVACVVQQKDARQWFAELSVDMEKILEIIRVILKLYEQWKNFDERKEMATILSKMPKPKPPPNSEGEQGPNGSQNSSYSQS

The first test has as its target T1, CDK8/CycC (Homo sapiens, UniProt P49336).
T1 construct: purchased Invitrogen PV4402
The test can be described thus: FRET based Lanthascreen binding competition assay for CDK8 inhibitory activity. The following applies: CDK8 co-expressed with CycC; class symbols; read-out: IC50. In a few lines: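 Competition binding of a dye-labeled ATP-competitive Alexa647 probe to CDK8 co-expressed with CycC, Eu-labeled via biotinylated anti-His antibody/streptavidin.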
What is called pIC50 is the negative decadic logarithm of the IC50, by convention in mol/L. In the case of `Cc1ccc([C@@H]2CCCN2C(=O)c2cnc3[nH]nc(C)c3c2)cc1` [compound 136, (3-Methyl-1H-pyrazolo[3,4-b]pyridin-5-yl)-((S)-2-p-tolyl-pyrrolidin-1-yl)-methanone], the pIC50 was > 8.00. The same measure, in the same setting: in the case of `Cc1ccc([C@H]2CCCN2C(=O)c2cnc3[nH]nc(C)c3c2)cc1` [compound 137, (3-Methyl-1H-pyrazolo[3,4-b]pyridin-5-yl)-((R)-2-p-tolyl-pyrrolidin-1-yl)-methanone] it was 5.00 to 6.00; in that of `Cc1n[nH]c2ncc(C(=O)N3CCC[C@@H](c4ccccc4)C3)cc12` [compound 139, (3-Methyl-1H-pyrazolo[3,4-b]pyridin-5-yl)-((S)-3-phenyl-piperidin-1-yl)-methanone], 6.00 to 7.00. Turning to `COc1ccccc1C1CCCN1C(=O)c1cnc2[nH]nc(C)c2c1` (stereo not drawn) [compound 141, [2-(2-Methoxy-phenyl)-pyrrolidin-1-yl]-(3-methyl-1H-pyrazolo[3,4-b]pyridin-5-yl)-methanone], the pIC50 is 6.00 to 7.00. Still for that read-out and setting: in the case of `COc1ccccc1[C@@H]1CCCN1C(=O)c1cnc2[nH]nc(C)c2c1` [compound 143, [(S)-2-(2-Methoxy-phenyl)-pyrrolidin-1-yl]-(3-methyl-1H-pyrazolo[3,4-b]pyridin-5-yl)-methanone] it was 7.00 to 8.00; in that of `Cc1n[nH]c2ncc(C(=O)N3CC[C@@H](N)[C@H]3c3ccc(F)cc3)cc12` [compound 144, [(2R,3R)-3-Amino-2-(4-fluoro-phenyl)-pyrrolidin-1-yl]-(3-methyl-1H-pyrazolo[3,4-b]pyridin-5-yl)-methanone], 7.00 to 8.00; in that of `Cc1n[nH]c2ncc(C(=O)N3C[C@@H](O)C[C@H]3c3ccc(F)cc3)cc12` [compound 145, [(2S,4S)-2-(4-Fluoro-phenyl)-4-hydroxy-pyrrolidin-1-yl]-(3-methyl-1H-pyrazolo[3,4-b]pyridin-5-yl)-methanone], 6.00 to 7.00. Same read-out and setting: in the case of `Nc1n[nH]c2ccc(C(=O)N3CCCC3c3cccc(Cl)c3)cc12` (stereo not drawn) [compound 147, (3-Amino-1H-indazol-5-yl)-[2-(3-chloro-phenyl)-pyrrolidin-1-yl]-methanone] it was 6.00 to 7.00.

In the case of `Nc1n[nH]c2ccc(C(=O)N3CCCC3c3ccccc3Cl)cc12` (stereo not drawn) [compound 148, (3-Amino-1H-indazol-5-yl)-[2-(2-chloro-phenyl)-pyrrolidin-1-yl]-methanone], the pIC50 is 6.00 to 7.00. For `Cc1n[nH]c2ncc(C(=O)N3CCCCC[C@H]3c3cccc(F)c3)cc12` [compound 150, [(S)-2-(3-Fluoro-phenyl)-azepan-1-yl]-(3-methyl-1H-pyrazolo[3,4-b]pyridin-5-yl)-methanone], the negative-log IC50 (pIC50) was 6.00 to 7.00. Still for that read-out and setting: in the case of `O=C(c1cnc2[nH]nc(C3CC3)c2c1)N1CCC[C@H]1c1ccc(Cl)cc1` [compound 152, [(S)-2-(4-Chloro-phenyl)-pyrrolidin-1-yl]-(3-cyclopropyl-1H-pyrazolo[3,4-b]pyridin-5-yl)-methanone] it was > 8.00; in that of `O=C(c1cnc2[nH]nc(C3CC3)c2c1)N1CCC[C@@H]1c1ccc(Cl)cc1` [compound 153, [(R)-2-(4-Chloro-phenyl)-pyrrolidin-1-yl]-(3-cyclopropyl-1H-pyrazolo[3,4-b]pyridin-5-yl)-methanone], 6.00 to 7.00; in that of `Cc1n[nH]c2ncc(C(=O)N3CCC[C@H]3c3ccc(C(F)(F)F)cc3)cc12` [compound 157, (3-Methyl-1H-pyrazolo[3,4-b]pyridin-5-yl)-[(S)-2-(4-trifluoromethyl-phenyl)-pyrrolidin-1-yl]-methanone], > 8.00.

The same test, now with this note: IC50 [μM], CDK8 co-expressed with CycC; class symbols.
By IC50 is commonly meant the midpoint of a concentration-inhibition curve. Low values mean greater potency, high ones weaker potency. Consider `Nc1n[nH]c2ccc(C(=O)N3CC[C@@H]3c3ccc(F)cc3)cc12` [compound 135, (3-Amino-1H-indazol-5-yl)-[(R)-2-(4-fluoro-phenyl)-azetidin-1-yl]-methanone], for which the IC50 was in the range of 0.1 to 1 µM. The molecule `O=C(c1ccc2[nH]ncc2c1)N1CCC[C@H]1c1ccc(Br)cc1` [compound 156] yielded an IC50 of 0.01 to 0.1 µM.
